Measurements published in patent US9163256B2, “Mutant receptors and their use in a nuclear receptor-based inducible gene expression system” (priority 2004, dated 2015).
Read-outs that look alike come from different tables or passages of the source.

Columns and labels:
[1] = molecular target: CfEcR-DEF mutant A110P (Choristoneura fumiferana, UniProt O77255, A393P); assay: cell-based; conditions: for Emax: NIH3T3, 40 h, read-out: Rel Max FI
How it was run: (§1)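 Mutant CfEcR-DEF receptor and GAL4-driven luciferase reporter constructs transfected into mouse NIH3T3 cells with DMSO or ligand added; maintained 48 h at 37° C in 5% FBS, harvested 40 h after ligand addition. Dual-luciferase read-out; fold induction = RLU with ligand / RLU with DMSO.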

[2] = molecular target: CfEcR-DEF mutant F109L (Choristoneura fumiferana, UniProt O77255, F392L); assay: cell-based; conditions: for Emax: NIH3T3, 40 h, read-out: Rel Max FI
CfEcR-DEF mutant F109L, sequence (P28702 299-449): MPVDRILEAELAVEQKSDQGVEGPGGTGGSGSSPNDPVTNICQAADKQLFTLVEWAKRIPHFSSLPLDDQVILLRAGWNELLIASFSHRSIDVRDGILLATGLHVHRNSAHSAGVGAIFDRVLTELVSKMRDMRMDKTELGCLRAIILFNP
CfEcR-DEF mutant F109L, sequence (O77255 entry or part of it F392L): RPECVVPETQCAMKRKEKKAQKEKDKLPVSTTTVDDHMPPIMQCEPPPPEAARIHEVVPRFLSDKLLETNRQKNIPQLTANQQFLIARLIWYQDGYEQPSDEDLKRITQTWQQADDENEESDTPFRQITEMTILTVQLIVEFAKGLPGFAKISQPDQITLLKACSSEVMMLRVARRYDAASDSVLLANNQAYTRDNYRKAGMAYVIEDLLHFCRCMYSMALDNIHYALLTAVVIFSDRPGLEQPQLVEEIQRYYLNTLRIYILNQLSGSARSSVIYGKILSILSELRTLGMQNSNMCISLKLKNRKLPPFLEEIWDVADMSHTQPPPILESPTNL
How it was run: as §1

[3] = molecular target: CfEcR-DEF mutant L234I (Choristoneura fumiferana, UniProt O77255, L517I); assay: cell-based; conditions: for Emax: NIH3T3, 40 h, read-out: Rel Max FI
CfEcR-DEF mutant L234I, sequence (P28702 299-449): as the sequence (P28702 299-449) above
CfEcR-DEF mutant L234I, sequence (O77255 entry or part of it L517I): as the sequence (O77255 entry or part of it F392L) above, with L186F, L311I counted along it
How it was run: as §1

[4] = molecular target: CfEcR-DEF mutant M125E (Choristoneura fumiferana, UniProt O77255, M408E); assay: cell-based; conditions: for Emax: NIH3T3, 40 h, read-out: Rel Max FI
CfEcR-DEF mutant M125E, sequence (O77255 entry or part of it M408E): as the sequence (O77255 entry or part of it F392L) above, with L186F, M202E counted along it
CfEcR-DEF mutant M125E, sequence (P28702 299-449, further chain): as the sequence (P28702 299-449) above
How it was run: as §1

[5] = molecular target: CfEcR-DEF mutant N119F/V96T (Choristoneura fumiferana, UniProt O77255, N402F/V379T); assay: cell-based; conditions: for Emax: NIH3T3, 40 h, read-out: Rel Max FI
CfEcR-DEF mutant N119F/V96T, sequence (O77255 entry or part of it V379T/N402F): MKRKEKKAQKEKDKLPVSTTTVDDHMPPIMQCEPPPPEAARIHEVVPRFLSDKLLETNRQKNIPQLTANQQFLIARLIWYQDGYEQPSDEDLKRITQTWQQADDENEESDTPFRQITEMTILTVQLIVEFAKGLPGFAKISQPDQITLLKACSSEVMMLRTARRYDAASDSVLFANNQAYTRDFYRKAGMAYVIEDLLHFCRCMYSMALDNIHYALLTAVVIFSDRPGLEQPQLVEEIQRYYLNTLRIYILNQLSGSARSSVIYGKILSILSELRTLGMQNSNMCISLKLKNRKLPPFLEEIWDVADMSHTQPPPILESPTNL
CfEcR-DEF mutant N119F/V96T, sequence (P28702 299-449, further chain): as the sequence (P28702 299-449) above
How it was run: as §1

[6] = molecular target: CfEcR-DEF mutant T52E (Choristoneura fumiferana, UniProt O77255, T335E); assay: cell-based; conditions: for Emax: NIH3T3, 40 h, read-out: Rel Max FI
CfEcR-DEF mutant T52E, sequence (O77255 entry or part of it T335E): as the sequence (O77255 entry or part of it V379T/N402F) above, with T117E, T161V, F184N counted along it
CfEcR-DEF mutant T52E, sequence (P28702 299-449, further chain): as the sequence (P28702 299-449) above
How it was run: as §1

[7] = molecular target: CfEcR-DEF mutant W238Y (Choristoneura fumiferana, UniProt O77255, W521Y); assay: cell-based; conditions: for Emax: NIH3T3, 40 h, read-out: Rel Max FI
CfEcR-DEF mutant W238Y, sequence (P28702 299-449): as above
CfEcR-DEF mutant W238Y, sequence (O77255 entry or part of it W521Y): as the sequence (O77255 entry or part of it V379T/N402F) above, with T161V, F184N, W303Y counted along it
How it was run: as §1

[8] = molecular target: CfEcR-DEF mutant F48N (Choristoneura fumiferana, UniProt O77255, F331N); assay: GAL4-driven luciferase reporter assay in NIH3T3 cells; type: cell-based; conditions: for Emax: NIH3T3, 40 h, read-out: Rel Max FI
CfEcR-DEF mutant F48N, sequence (O77255 entry or part of it F331N): as the sequence (O77255 entry or part of it F392L) above, with F125N, L186F counted along it
CfEcR-DEF mutant F48N, sequence (P28702 299-449, further chain): as the sequence (P28702 299-449) above
Procedure: (§2) This construct was prepared in the same way as in switch 1.1 above except wild-type CfEcR-DEF was replaced with mutant CfEcR-DEF comprising a ligand binding domain comprising a substitution mutation selected from Table 1 below.
(§3) DNAs were transfected into mouse NIH3T3 cells (ATCC) as follows. Standard methods for culture and maintenance of the cells were followed. Cells were harvested and plated 96-well plates at 2,500 cells per well, in 50 μL of growth medium containing 10% fetal bovine serum (FBS). Twenty-four hours later, the cells were treated with 35 μL of serum-free growth medium containing either dimethylsulfoxide (DMSO; control) or a DMSO solution of ligand. The cells were then transfected using Superfect (Qiagen Inc.) transfection reagent. For each well, 0.625 μL of Superfect was mixed with 14.2 μL of serum-free growth medium. 0.16 μg of reporter construct and 0.04 μg of each receptor construct were added to the transfection reagent mix. The contents of the transfection mix were mixed in a vortex mixer and let stand at room temperature for 30 minutes. At the end of incubation, 15 μL of transfection mix was added to the cells. The cells were maintained at 37° C. and 5% CO2 for 48 hours in 5% FBS.
(§4) Reporter Assays: Cells were harvested 40 hours after adding ligands. 125 μL of passive lysis buffer (part of Dual-Luciferase reporter assay system from Promega Corporation) were added to each well of the […] plate. The plates were placed on a rotary shaker for 15 minutes. Twenty μL of lysate were assayed. Luciferase activity was measured using Dual-Luciferase reporter assay system from Promega Corporation following the manufacturer's instructions. Fold induction (FI) activities were calculated by dividing relative light units (“RLU”) in ligand treated cells with RLU in DMSO treated cells (untreated control).

[9] = molecular target: CfEcR-DEF mutant M125W (Choristoneura fumiferana, UniProt O77255, M408W); assay: as above; type: cell-based; conditions: for Emax: NIH3T3, 40 h, read-out: Rel Max FI
CfEcR-DEF mutant M125W, sequence (O77255 entry or part of it M408W): as the sequence (O77255 entry or part of it F392L) above, with L186F, M202W counted along it
CfEcR-DEF mutant M125W, sequence (P28702 299-449, further chain): as the sequence (P28702 299-449) above
Procedure: as §2, §3, §4

[10] = molecular target: CfEcR-DEF mutant T52V/A110P (Choristoneura fumiferana, UniProt O77255, A393P/T335V); assay: as above; type: cell-based; conditions: for Emax: NIH3T3, 40 h, read-out: Rel Max FI
CfEcR-DEF mutant T52V/A110P, sequence (O77255 entry or part of it T335V/A393P): as the sequence (O77255 entry or part of it V379T/N402F) above, with T117V, T161V, A175P, F184N counted along it
CfEcR-DEF mutant T52V/A110P, sequence (P28702 299-449, stated change not applied, further chain): as the sequence (P28702 299-449) above
Procedure: as §2, §3, §4

[11] = molecular target: CfEcR-DEF mutant V107I/Y127E/T52V (Choristoneura fumiferana, UniProt O77255, T335V/V390I/Y410E); assay: as above; type: cell-based; conditions: for Emax: NIH3T3, 40 h, read-out: Rel Max FI
CfEcR-DEF mutant V107I/Y127E/T52V, sequence (P28702 299-449): as above
CfEcR-DEF mutant V107I/Y127E/T52V, sequence (O77255 entry or part of it T335V/V390I/Y410E): as the sequence (O77255 entry or part of it V379T/N402F) above, with T117V, T161V, V172I, F184N, Y192E counted along it
Procedure: as §2, §3, §4

[12] = system: CfEcR-DEF mutant F109P; assay: as above; type: cell-based, Choristoneura fumiferana
Procedure: as §2, §3, §4

[13] = system: CfEcR-DEF mutant I51N; assay: as above; type: cell-based, Choristoneura fumiferana
Procedure: as §2, §3, §4

[14] = system: CfEcR-DEF mutant L132N; assay: as above; type: cell-based, Choristoneura fumiferana
Procedure: as §2, §3, §4

[15] = system: CfEcR-DEF mutant N119F; assay: as above; type: cell-based, Choristoneura fumiferana
Procedure: as §2, §3, §4

[16] = molecular target: CfEcR-DEF mutant F48R (Choristoneura fumiferana, UniProt O77255, F331R); assay: as above; type: cell-based
CfEcR-DEF mutant F48R, sequence (O77255 entry or part of it F331R): as the sequence (O77255 entry or part of it F392L) above, with F125R, L186F counted along it
CfEcR-DEF mutant F48R, sequence (P28702 299-449, further chain): as the sequence (P28702 299-449) above
Procedure: as §2, §3, §4

[17] = molecular target: CfEcR-DEF mutant M125S (Choristoneura fumiferana, UniProt O77255, M408S); assay: as above; type: cell-based
CfEcR-DEF mutant M125S, sequence (P28702 299-449): as above
CfEcR-DEF mutant M125S, sequence (O77255 entry or part of it M408S): as the sequence (O77255 entry or part of it V379T/N402F) above, with T161V, F184N, M190S counted along it
Procedure: as §2, §3, §4

[18] = molecular target: CfEcR-DEF mutant M125V (Choristoneura fumiferana, UniProt O77255, M408V); assay: as above; type: cell-based
CfEcR-DEF mutant M125V, sequence (O77255 entry or part of it M408V): as the sequence (O77255 entry or part of it V379T/N402F) above, with T161V, F184N, M190V counted along it
CfEcR-DEF mutant M125V, sequence (P28702 299-449, further chain): as the sequence (P28702 299-449) above
Procedure: as §2, §3, §4

[19] = molecular target: CfEcR-DEF mutant M219A (Choristoneura fumiferana, UniProt O77255, M502A); assay: as above; type: cell-based
CfEcR-DEF mutant M219A, sequence (O77255 entry or part of it M502A): as the sequence (O77255 entry or part of it F392L) above, with L186F, M296A counted along it
CfEcR-DEF mutant M219A, sequence (P28702 299-449, further chain): as the sequence (P28702 299-449) above
Procedure: as §2, §3, §4

[20] = molecular target: CfEcR-DEF mutant T52R (Choristoneura fumiferana, UniProt O77255, T335R); assay: as above; type: cell-based
CfEcR-DEF mutant T52R, sequence (O77255 entry or part of it T335R): as the sequence (O77255 entry or part of it V379T/N402F) above, with T117R, T161V, F184N counted along it
CfEcR-DEF mutant T52R, sequence (P28702 299-449, further chain): as the sequence (P28702 299-449) above
Procedure: as §2, §3, §4

[21] = system: CfEcR-DEF mutant V107I/Y127E; assay: as above; type: cell-based, Choristoneura fumiferana; parameters: Concentration (mM) at max FI: unit not given here
Procedure: as §2
as §3, with “The contents of the transfection mix were mixed in a vortex mixer and let stand at room temperature for 30 minutes. At the end of incubation, 15 μL of transfection mix was added to the cells. The cells were maintained at 37° C. and 5% CO2 for 48 hours in 5% FBS.” left out
Reporter Assays: Cells were harvested 40 hours after adding ligands. […] Luciferase activity was measured using Dual-Luciferase reporter assay system from Promega Corporation following the manufacturer's instructions. Fold induction (FI) activities were calculated by dividing relative light units (“RLU”) in ligand treated cells with RLU in DMSO treated cells (untreated control).

[22] = NIH3T3, mouse, 40 h, read-out: GS-E ligand max FI (relative to DMSO)
[23] = NIH3T3, 40 h, read-out: Rel Max FI

CfEcR-DEF mutant A110P, sequence (O77255 entry or part of it A393P): as the sequence (O77255 entry or part of it F392L) above, with L186F, A187P counted along it
CfEcR-DEF mutant A110P, sequence (P28702 299-449, stated change not applied, further chain): as the sequence (P28702 299-449) above

With `CC(C)(O)CC[C@@H](O)[C@](C)(O)[C@H]1CC[C@@]2(O)C3=CC(=O)[C@@H]4C[C@@H](O)[C@@H](O)C[C@]4(C)[C@H]3CC[C@]12C` [20E, 20-hydroxyecdysone] the EC50 ([1]; mutant A110P, read-out: EC50) was over 33 µM, the “Rel Max FI” value ([1]; mutant A110P, relative to max fold induction of GS-E ligand) was 0 and the “Rel Max FI” value ([2]; mutant F109L) was 0.09. For the same compound, the EC50 ([2]; mutant F109L, read-out: EC50) was over 33 µM, the “Rel Max FI” value ([3]; mutant L234I) was 0 and the EC50 ([3]; mutant L234I, read-out: EC50) was over 33 µM. The “Rel Max FI” value ([4]; mutant M125E) was 0, the EC50 ([4]; mutant M125E, read-out: EC50) was over 33 µM and the EC50 ([5]; mutant N119F/V96T, read-out: EC50) was about 8 µM. For the same compound, the “Rel Max FI” value ([5]; mutant N119F/V96T, relative to max fold induction of GS-E ligand) was 0.46, the “Rel Max FI” value ([6]; mutant T52E) was 0 and the EC50 ([6]; mutant T52E, read-out: EC50) was over 33 µM. The “Rel Max FI” value ([7]; mutant W238Y) was 0.18, the EC50 ([7]; mutant W238Y, read-out: EC50) was over 33 µM and the “Rel Max FI” value ([8]; mutant F48N) was 0. The EC50 ([8]; mutant F48N, read-out: EC50) was over 33 µM, the “Rel Max FI” value ([9]; mutant M125W) was 0 and the EC50 ([9]; mutant M125W, read-out: EC50) was over 33 µM. For the same compound, the EC50 ([10]; mutant T52V/A110P, read-out: EC50) was over 33 µM, the “Rel Max FI” value ([10]; mutant T52V/A110P, relative to max fold induction of GS-E ligand) was 0 and the EC50 ([11]; mutant V107I/Y127E/T52V, read-out: EC50) was over 33 µM. The “Rel Max FI” value ([11]; mutant V107I/Y127E/T52V, relative to max fold induction of GS-E ligand) was 0.04.
In the case of `CCc1cccc(C(=O)NN(C(=O)c2cc(C)cc(C)c2)C(C)(C)C)c1C` [RG-101691, 3,5-Dimethyl-benzoic acid N-tert-butyl-N′-(3-ethyl-2-methyl-benzoyl)-hydrazide], the EC50 [1] is reported as 0.67 µM, the Emax [1] is reported as 89% and the EC50 [2] is reported as 2.34 µM. For the same compound, the Emax [2] was 68%, the EC50 [3] was 0.94 µM and the Emax [3] was 73%. The EC50 [4] was 0.98 µM, the Emax [4] was 53% and the EC50 [5] was 3.63 µM. It also gave an Emax [5] of 13%, an EC50 [6] of about 7 µM and an Emax [6] of 57%. It also gave an EC50 [7] of over 33 µM, an Emax [7] of 30% and an EC50 [8] of 1.73 µM. It also gave an Emax [8] of 88%, an EC50 [9] of 4.94 µM and an Emax [9] of 74%. The EC50 [10] was 0.24 µM, the Emax [10] was 66% and the EC50 [11] was 0.02 µM. For the same compound, the Emax [11] was 88%.
`CCc1c(OC)cccc1C(=O)NN(C(=O)c1cc(C)cc(C)c1)C(C)(C)C` [RG-102240, N-(2-ethyl-3-methoxybenzoyl)-N′-(3,5-dimethylbenzoyl)-N′-tert-butylhydrazine] was tested, and the “GS-E ligand max FI (relative to DMSO)” value [12] was 1, the “Concentration (mM) at max FI” value ([12]; GS-E ligand) was 10.00 mM and the “GS-E ligand max FI (relative to DMSO)” value [13] was 1. For the same compound, the “Concentration (mM) at max FI” value ([13]; GS-E ligand) was 33.30 mM, the “GS-E ligand max FI (relative to DMSO)” value [14] was 785 and the “Concentration (mM) at max FI” value ([14]; GS-E ligand) was 33.30 mM. For the same compound, the “Fold increase over WT” value ([15]; 1.6 nM ligand) was 1.22, the “Fold increase over WT” value ([15]; 8 nM ligand) was 0.73 and the “Fold increase over WT” value ([15]; 40 nM ligand) was 0.06. For the same compound, the “Fold increase over WT” value ([15]; 200 nM ligand) was 0.01, the “Fold increase over WT” value ([15]; 1 μM ligand) was 0.08 and the “Fold increase over WT” value ([15]; 5 μM ligand) was 0.59. For the same compound, the EC50 [1] was 0.55 µM, the Emax [1] was 100% and the maximal fold induction [1, 22] was 2290. The EC50 [2] was about 2 µM, the Emax [2] was 100% and the maximal fold induction [2, 22] was 20. The “Concentration (mM) at max FI” value ([2]; mutant F109L, GS-E ligand) was 33.30 mM, the EC50 [3] was 0.77 µM and the Emax [3] was 100%. The maximal fold induction [3, 22] was 2650, the “Concentration (mM) at max FI” value ([3]; mutant L234I, GS-E ligand) was 10 mM and the EC50 [4] was about 2 µM. The Emax [4] was 100%, the maximal fold induction [4, 22] was 1200 and the “Concentration at max FI” value ([4]; mutant M125E, GS-E ligand) was 33.3 mM. It also gave an EC50 [5] of about 8 µM, an Emax [5] of 100% and a maximal fold induction [5, 22] of 1740. For the same compound, the “Concentration (mM) at max FI” value ([5]; mutant N119F/V96T, GS-E ligand) was 33.3 mM, the EC50 [6] was about 7 µM and the Emax [6] was 100%. The maximal fold induction [6, 22] was 1540, the “Concentration (mM) at max FI” value ([6]; mutant T52E, GS-E ligand) was 33.3 mM and the EC50 [7] was about 13 µM. The Emax [7] was 100%, the maximal fold induction [7, 22] was 11 and the “Concentration (mM) at max FI” value ([7]; mutant W238Y, GS-E ligand) was 0.0333 mM. For the same compound, the EC50 [8] was 0.75 µM, the Emax [8] was 100% and the EC50 [16] was 7.23 µM. It also gave an Emax [16, 23] of 100%, an EC50 [17] of 12.3 µM and an Emax [17, 23] of 100%. For the same compound, the EC50 [18] was 1.64 µM, the Emax [18, 23] was 100% and the EC50 [9] was 3.49 µM. The Emax [9] was 100%, the EC50 [19] was 2.9 µM and the Emax [19, 23] was 100%. For the same compound, the EC50 [20] was 6.69 µM, the Emax [20, 23] was 100% and the EC50 [10] was 0.33 µM. It also gave an Emax [10] of 100%, an EC50 [11] of 0.06 µM and an Emax [11] of 100%. The “GS-E ligand max FI (relative to DMSO)” value [21] was 3146 and the “Concentration (mM) at max FI” value ([21]; GS-E ligand) was 10.
